# Experimental data reported in PubChem BioAssay AID268 (DTP/NCI, 2004).
# Values joined by “and” are separate entries in the source; they are usually repeats but may differ in a detail not shown here. Equal values may be shown once.
# Test system: CD2F1 mice, P1798 lymphosarcoma sc, tumor weight T/C
# Assay: NCI In Vivo Anticancer Drug Screen. Data for tumor model P1798 Lymphosarcoma (subcutaneous) in CD2F1 (CDF1) mice
# Conditions: endpoint: mean tumor weight, higher = larger tumour
# Experimental: The antitumor activity of compounds was measured in mice bearing transplantable tumors. Survival or tumor size were measured and the results are expressed as the measurement made in the treated group (T) divided by the measurement made in the vehicle treated control group (C). The tumor model used in this assay is P1798 Lymphosarcoma (subcutaneous) in CD2F1 (CDF1) mice
# [1] = dose: 10.0 mg/kg/injection, schedule: Q01DX010 (sc), vehicle: steriod suspending solution
# [2] = dose: 20.0 mg/kg/injection, schedule: Q01DX010 (sc), vehicle: steriod suspending solution
# [3] = dose: 40.0 mg/kg/injection, schedule: Q01DX010 (sc), vehicle: steriod suspending solution
# [4] = dose: 6.25 mg/kg/injection, schedule: Q01DX010 (sc), vehicle: steriod suspending solution
# [5] = dose: 12.5 mg/kg/injection, schedule: Q01DX010 (sc), vehicle: steriod suspending solution
# [6] = dose: 25.0 mg/kg/injection, schedule: Q01DX010 (sc), vehicle: steriod suspending solution
# [7] = dose: 50.0 mg/kg/injection, schedule: Q01DX010 (sc), vehicle: steriod suspending solution
# [8] = dose: 12.5 mg/kg/injection, schedule: Q01DX010 (ip), vehicle: saline
# [9] = dose: 25.0 mg/kg/injection, schedule: Q01DX010 (ip), vehicle: saline
# [10] = dose: 50.0 mg/kg/injection, schedule: Q01DX010 (ip), vehicle: saline
# [11] = dose: 100.0 mg/kg/injection, schedule: Q01DX010 (ip), vehicle: saline
# [12] = dose: 200.0 mg/kg/injection, schedule: Q01DX010 (ip), vehicle: saline
# [13] = dose: 16.0 mg/kg/injection, schedule: Q01DX010 (ip), vehicle: saline
# [14] = dose: 32.0 mg/kg/injection, schedule: Q01DX010 (ip), vehicle: saline
# [15] = dose: 64.0 mg/kg/injection, schedule: Q01DX010 (ip), vehicle: saline
# [16] = dose: 20.0 mg/kg/injection, schedule: Q01DX010 (ip), vehicle: saline
# [17] = dose: 40.0 mg/kg/injection, schedule: Q01DX010 (ip), vehicle: saline
# [18] = dose: 80.0 mg/kg/injection, schedule: Q01DX010 (ip), vehicle: saline
# [19] = dose: 125.0 mg/kg/injection, schedule: Q01DX010 (ip), vehicle: saline
compound,measurement,setting,value
CC(=O)OCC(=O)[C@@]1(O)CC[C@H]2[C@@H]3CCC4=CC(=O)C=C[C@]4(C)[C@H]3[C@@H](O)C[C@@]21C,T/C,"dose: 2.5 mg/kg/injection, schedule: Q01DX Z (sc), vehicle: steriod suspending solution",92 % of control
same,T/C,"dose: 5.0 mg/kg/injection, schedule: Q01DX010 (sc), vehicle: steriod suspending solution",20 % of control
same,T/C,"dose: 5.0 mg/kg/injection, schedule: Q01DX Z (sc), vehicle: steriod suspending solution",107 % of control
same,T/C,[1],4 % of control
same,T/C,"dose: 10.0 mg/kg/injection, schedule: Q01DX Z (sc), vehicle: steriod suspending solution",100 % of control and 88 % of control
same,T/C,[2],5 % of control
same,T/C,"dose: 20.0 mg/kg/injection, schedule: Q01DX Z (sc), vehicle: steriod suspending solution",119 % of control
same,T/C,[3],5 % of control
same,T/C,"dose: 40.0 mg/kg/injection, schedule: Q01DX Z (sc), vehicle: steriod suspending solution",77 % of control
same,T/C,"dose: 80.0 mg/kg/injection, schedule: Q01DX Z (sc), vehicle: steriod suspending solution",57 % of control
CC/C(=C(/CC)c1ccc(O)cc1)c1ccc(O)cc1,T/C,[4],91 % of control and 96 % of control
same,T/C,"dose: 100.0 mg/kg/injection, schedule: Q01DX010 (sc), vehicle: steriod suspending solution",22 % of control and 45 % of control
CC(=O)O[C@H]1CC[C@H]2[C@@H]3CC[C@H]4CCCC[C@]4(C)[C@H]3CC[C@]12C,T/C,[5],104 % of control and 121 % of control
same,T/C,[6],103 % of control and 85 % of control
same,T/C,[7],103 % of control
NC(N)=NCCCC(N)C(=O)NCCCCCCCCCCNC(=O)C(N)CCCN=C(N)N (stereo unspecified),T/C,"dose: 6.25 mg/kg/injection, schedule: Q01DX010 (ip), vehicle: saline",103 % of control
same,T/C,[8],110 % of control
same,T/C,[9],78 % of control
same,T/C,[10],99 % of control
C[C@]12CC[C@@H]3c4ccc(O)cc4CC[C@H]3[C@@H]1CC[C@@H]2O,T/C,[4],80 % of control and 90 % of control
same,T/C,[5],70 % of control and 86 % of control
same,T/C,[6],77 % of control and 81 % of control
same,T/C,[7],100 % of control and 82 % of control
CSc1ncnc2nc[nH]c12,T/C,[9],100 % of control and 78 % of control
same,T/C,[10],81 % of control and 86 % of control
same,T/C,[11],94 % of control and 70 % of control
same,T/C,[12],61 % of control and 64 % of control
Nc1ncnc2[nH]ncc12,T/C,"dose: 1.5 mg/kg/injection, schedule: Q01DX010 (ip), vehicle: saline",84 % of control and 88 % of control
same,T/C,"dose: 3.0 mg/kg/injection, schedule: Q01DX010 (ip), vehicle: saline",73 % of control and 88 % of control
same,T/C,"dose: 12.0 mg/kg/injection, schedule: Q01DX010 (ip), vehicle: saline",43 % of control
CN1CC[C@]23c4c5ccc(O)c4O[C@H]2C(=O)CC[C@H]3[C@H]1C5,T/C,"dose: 8.0 mg/kg/injection, schedule: Q01DX010 (ip), vehicle: saline",94 % of control and 80 % of control
same,T/C,[13],76 % of control and 79 % of control
same,T/C,[14],74 % of control and 85 % of control
same,T/C,[15],93 % of control and 70 % of control
Cc1cc(C(C)(C)C)ccc1O,T/C,"dose: 6.2 mg/kg/injection, schedule: Q01DX011 (ip), vehicle: carboxymethylcellulose (CMC)",47 % of control
same,T/C,"dose: 12.5 mg/kg/injection, schedule: Q01DX011 (ip), vehicle: carboxymethylcellulose (CMC)",105 % of control
same,T/C,"dose: 25.0 mg/kg/injection, schedule: Q01DX011 (ip), vehicle: carboxymethylcellulose (CMC)",106 % of control
CS(=O)(=O)OCCN(CCOS(C)(=O)=O)c1ccc(N=O)cc1,T/C,"dose: 0.25 mg/kg/injection, schedule: Q01DX010 (ip), vehicle: saline",92 % of control
same,T/C,"dose: 1.0 mg/kg/injection, schedule: Q01DX010 (ip), vehicle: saline",69 % of control
Nc1nc(N)c2nc(CNc3ccc(C(=O)NC(CCC(=O)O)C(=O)O)cc3)cnc2n1 (stereo unspecified),T/C,"dose: 50.0 micrograms/kg/injection, schedule: Q01DX010 (ip), vehicle: other",110 % of control
same,T/C,"dose: 100.0 micrograms/kg/injection, schedule: Q01DX010 (ip), vehicle: other",100 % of control
same,T/C,"dose: 200.0 micrograms/kg/injection, schedule: Q01DX010 (ip), vehicle: other",79 % of control
COc1cc(-c2ccc(Nc3ccccc3C(=O)O)c(OC)c2)ccc1N,T/C,[16],82 % of control
same,T/C,[17],52 % of control
CCCCCC(=O)O[C@]1(C(C)=O)CC[C@H]2[C@@H]3CCC4=CC(=O)CC[C@]4(C)[C@H]3CC[C@@]21C,T/C,"dose: 250.0 mg/kg/injection, schedule: Q01DX010 (sc), vehicle: steriod suspending solution",110 % of control
same,T/C,"dose: 375.0 mg/kg/injection, schedule: Q01DX010 (sc), vehicle: steriod suspending solution",106 % of control
same,T/C,"dose: 500.0 mg/kg/injection, schedule: Q01DX010 (sc), vehicle: steriod suspending solution",114 % of control
same,T/C,"dose: 750.0 mg/kg/injection, schedule: Q01DX010 (sc), vehicle: steriod suspending solution",109 % of control
NC(=O)NO,T/C,"dose: 60.0 mg/kg/injection, schedule: Q01DX010 (ip), vehicle: saline",60 % of control
same,T/C,"dose: 90.0 mg/kg/injection, schedule: Q01DX010 (ip), vehicle: saline",54 % of control
same,T/C,"dose: 135.0 mg/kg/injection, schedule: Q01DX010 (ip), vehicle: saline",39 % of control
same,T/C,[12],12 % of control
O=C1NC2C(NC(=O)N2Cl)N1Cl (stereo unspecified),T/C,[16],80 % of control
same,T/C,[17],90 % of control
same,T/C,[18],76 % of control
CC(=O)OCC(=O)[C@@]1(O)CC[C@H]2[C@@H]3C[C@H](C)C4=CC(=O)C=C[C@]4(C)[C@H]3[C@@H](O)C[C@@]21C,T/C,[7],5 % of control
CCN(CC)CCCC(C)Nc1c2ccc(Cl)cc2nc2ccc(OC)cc12 (stereo unspecified),T/C,[8],103 % of control
same,T/C,[9],103 % of control and 88 % of control
same,T/C,[10],81 % of control and 85 % of control
same,T/C,[11],61 % of control and 64 % of control
O=c1[nH]c(=O)n(C2CC(O)C(CO)O2)cc1F (stereo unspecified),T/C,"dose: 5.0 mg/kg/injection, schedule: Q01DX010 (ip), vehicle: saline",73 % of control
same,T/C,"dose: 10.0 mg/kg/injection, schedule: Q01DX010 (ip), vehicle: saline",68 % of control and 84 % of control
same,T/C,[16],47 % of control and 55 % of control
same,T/C,[17],15 % of control and 28 % of control
same,T/C,[18],1 % of control
CC(=O)NCCCCCCNCCCCCCNC(C)=O,T/C,[10],99 % of control
same,T/C,[11],92 % of control
same,T/C,[12],102 % of control
same,T/C,"dose: 400.0 mg/kg/injection, schedule: Q01DX010 (ip), vehicle: saline",80 % of control
CCCSc1ncnc2nc[nH]c12,T/C,[19],21 % of control
c1ccc(CNc2ncnc3[nH]ncc23)cc1,T/C,[13],98 % of control
same,T/C,[14],83 % of control
same,T/C,[15],70 % of control
Cc1nc(N2CC2)nc(N2CC2)c1[N+](=O)[O-],T/C,"dose: 1.25 mg/kg/injection, schedule: Q01DX010 (ip), vehicle: saline",63 % of control and 82 % of control
same,T/C,"dose: 2.5 mg/kg/injection, schedule: Q01DX010 (ip), vehicle: saline",73 % of control and 84 % of control
Nc1c(Br)cc2c(c1Br)Cc1cc([N+](=O)[O-])ccc1-2,T/C,"dose: 31.3 mg/kg/injection, schedule: Q01DX010 (ip), vehicle: saline",72 % of control
same,T/C,"dose: 62.5 mg/kg/injection, schedule: Q01DX010 (ip), vehicle: saline",78 % of control
same,T/C,[19],61 % of control
same,T/C,"dose: 250.0 mg/kg/injection, schedule: Q01DX010 (ip), vehicle: saline",62 % of control
COC1=C(N)C(=O)c2nc(-c3nc(C(=O)O)c(C)c(-c4ccc(OC)c(OC)c4O)c3N)ccc2C1=O,T/C,"dose: 0.06 mg/kg/injection, schedule: Q01DX010 (ip), vehicle: other",45 % of control
same,T/C,"dose: 0.09 mg/kg/injection, schedule: Q01DX010 (ip), vehicle: other",48 % of control
same,T/C,"dose: 0.13 mg/kg/injection, schedule: Q01DX010 (ip), vehicle: other",43 % of control
same,T/C,"dose: 0.2 mg/kg/injection, schedule: Q01DX010 (ip), vehicle: saline",28 % of control
C[C@]12CC[C@H](O)C[C@@H]1CC[C@@H]1[C@@H]2C(=O)C[C@]2(C)C3=CC(=O)O[C@H]3C[C@@H]12,T/C,[1],76 % of control and 83 % of control
same,T/C,[2],97 % of control
same,T/C,[3],87 % of control and 90 % of control
same,T/C,"dose: 80.0 mg/kg/injection, schedule: Q01DX010 (sc), vehicle: steriod suspending solution",78 % of control and 85 % of control
O[C@H](CN1CC1)[C@@H](O)CN1CC1,T/C,"dose: 62.5 micrograms/kg/injection, schedule: Q01DX010 (ip), vehicle: saline",76 % of control
same,T/C,"dose: 125.0 micrograms/kg/injection, schedule: Q01DX010 (ip), vehicle: saline",62 % of control
same,T/C,"dose: 250.0 micrograms/kg/injection, schedule: Q01DX010 (ip), vehicle: saline",45 % of control
same,T/C,"dose: 500.0 micrograms/kg/injection, schedule: Q01DX010 (ip), vehicle: saline",31 % of control
